Assay results taken from paper PMC8580996, “2-Oxoglutarate derivatives can selectively enhance or inhibit the activity of human oxygenases” (Nature Communications, 2021).
“And” between values parts separate entries of the source, which are not always exact repeats. Equal values may be shown once.

Assays:
[1] = molecular target: T1, FIH (Homo sapiens, UniProt Q9NWT6); test: FIH steady-state kinetic parameters (SPE-MS, initial hydroxylation rates); assay type: biochemical; parameters: slope of initial reaction rate: unit not given here
T1 sequence (Q9NWT6 whole entry): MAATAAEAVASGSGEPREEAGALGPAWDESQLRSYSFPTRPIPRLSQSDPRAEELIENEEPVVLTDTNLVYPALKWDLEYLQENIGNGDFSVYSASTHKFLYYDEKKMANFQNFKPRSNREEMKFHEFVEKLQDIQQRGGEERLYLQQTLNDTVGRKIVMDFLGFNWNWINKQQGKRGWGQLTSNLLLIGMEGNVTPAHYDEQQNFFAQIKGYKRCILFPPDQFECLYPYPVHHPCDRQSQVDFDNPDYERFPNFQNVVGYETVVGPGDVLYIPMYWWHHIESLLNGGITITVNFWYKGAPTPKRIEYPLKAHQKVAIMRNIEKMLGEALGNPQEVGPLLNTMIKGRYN
Method: Final 2OG/2OG derivative concentrations are given in Supplementary Figs. 5 and 6. Reactions were monitored with a rate of ~1 sample/40 s using the same SPE-MS configuration as described above. Data were analyzed as described above and the slopes of the initial reaction rates (Supplementary Figs. 5 and 6) fitted to a Michaelis–Menten plot using non-linear regression (GraphPad Prism 5). […]
determine kinetic parameters for 2OG derivatives (continues on the following page). Maximum velocities (vapp ) and Michaelis constants (Kapp) of FIH were determined in independent triplicates for 2OG and the 2OG […]
SPE-MS as described in the Methods section. […]
acid (LAA), and 20 μM ammonium iron(II) sulfate hexahydrate (FAS, (NH4)2Fe(SO4)2·6H2O) in buffer (50 mM […]
Tris, 50 mM NaCl, pH 7.5, 20° C). […]
data are provided as a Source Data file. […]
concentrations of 2OG; (b) hydroxylation rates used to determine kinetic parameters of FIH for 2OG; (c) time […]
3-methyl-2OG (1); (d) hydroxylation rates used to determine kinetic parameters of FIH for 1; (e) time course of […]
2OG (12); (f) hydroxylation rates used to determine kinetic parameters of FIH for 12; (g) time course of the FIH- […]
(h) hydroxylation rates used to determine kinetic parameters of FIH for 14; (i) time course of the FIH-catalyzed […]
(carboxycarbonyl)cyclopentane-1-carboxylic acid (22); (j) hydroxylation rates used to determine kinetic parameters of FIH for 22.
Supplementary Figure 6. Hydroxylation rates of FIH-catalyzed CA1-20 hydroxylations used to determine kinetic parameters for 2OG derivatives (continues on the following page). Maximum velocities (vapp ) and […]
ammonium iron(II) sulfate hexahydrate (FAS, (NH4)2Fe(SO4)2·6H2O) in buffer (50 mM Tris, 50 mM NaCl, pH […]
Source data are provided as a Source […]
of 2OG; (b) hydroxylation rates used to determine kinetic parameters of FIH for 2OG; (c) time course of the FIH-catalyzed hydroxylation reaction of the CA1-20 peptide for the shown concentrations of 3-methyl-2OG (1); (d) hydroxylation rates used to determine kinetic parameters of FIH for 1; (e) time course of the FIH -catalyzed hydroxylation reaction of the CA 1-20 peptide for the shown concentrations of 4 -methyl-2OG (12); (f) hydroxylation rates used to determine kinetic parameters of FIH for 12; (g) time course of the FIH-catalyzed hydroxylation reaction of the CA1-20 peptide for the shown concentrations of 4-ethyl-2OG (14); (h) hydroxylation rates used to determine kinetic parameters of FIH for 14; (i) time course of the FIH-catalyzed hydroxylation reaction of the CA1-20 peptide for the shown concentrations of 3-(carboxycarbonyl)cyclopentane-1-carboxylic acid (22); (j) hydroxylation rates used to determine kinetic parameters of FIH for 22.

[2] = molecular target: T1, FIH; test: SPE-MS FIH turnover (cosubstrate) assay in the absence of 2OG; assay type: biochemical; details: 330 μM 2OG or 2OG derivative, no 2OG, t = 15 min
Method: The ability of 35 synthetic C3/C4-substituted 2OG derivatives, which were prepared via a reported procedure (Supplementary Fig. 1 and Supplementary Methods)[21], to sustain catalysis by purified recombinant FIH in the absence of 2OG was examined using an assay directly monitoring substrate depletion and product formation (i.e., a +16 Da mass shift) by solid-phase extraction (SPE) coupled to mass spectrometry (SPE-MS)[44],[45]. […] (i.e. CA1–20)[47], were used as FIH substrates to test for potential substrate-dependent differences in terms of cosubstrate analog selectivity.
Assay samples were aspirated under vacuum for 0.6 s and loaded onto a C4 SPE cartridge. After loading, the C4 SPE cartridge was washed with 0.1%v/v aqueous formic acid to remove non-volatile buffer salts (5.5 s, 1.5 mL/min). […] The mass spectrometer was operated using the MassHunter Workstation B.08.00 software (Agilent), the mass spectrometer parameters were: capillary voltage (4000 V), nozzle voltage (1000 V), fragmentor voltage (365 V), gas temperature (280 °C), gas flow (13 L/min), sheath gas temperature (350 °C), sheath gas flow (12 L/min). […] Data were exported into Microsoft Excel and used to calculate the % conversion of the hydroxylation reaction using the equation: % conversion = 100 × (integral product peptide)/(integral substrate peptide+integral product peptide). […] Z′-factors were calculated according to the cited literature using Microsoft Excel (Supplementary Fig. 26)[83].

## O=C(O)CCC(=O)C(=O)O [2OG, 2-Oxoglutarate]
[1]; CA1-20, 0.25 μM 2OG
  slope of initial reaction rate: 0.01003 and 0.007495
[1]; CA1-20, 0.5 μM 2OG
  slope of initial reaction rate: 0.01547 and 0.01452 and 0.0138
[1]; CA1-20, 1 μM 2OG
  slope of initial reaction rate: 0.01838 and 0.01865 and 0.02116
[1]; CA1-20, 2 μM 2OG
  slope of initial reaction rate: 0.02416 and 0.02022 and 0.02356
[1]; CA1-20, 4 μM 2OG
  slope of initial reaction rate: 0.02388 and 0.01977 and 0.02365
[1]; CA1-20, 8 μM 2OG
  slope of initial reaction rate: 0.02261 and 0.02524
[1]; HIF-1a788-822, 0.1 μM 2OG
  slope of initial reaction rate: 0.000581 and 0.000778 and 0.00072
[1]; HIF-1a788-822, 0.25 μM 2OG
  slope of initial reaction rate: 0.001141 and 0.001302 and 0.001382
[1]; HIF-1a788-822, 0.5 μM 2OG
  slope of initial reaction rate: 0.001962 and 0.002167 and 0.002275
[1]; HIF-1a788-822, 1 μM 2OG
  slope of initial reaction rate: 0.003115 and 0.003005 and 0.00301
[1]; HIF-1a788-822, 2 μM 2OG
  slope of initial reaction rate: 0.00418 and 0.004157 and 0.004411
[1]; HIF-1a788-822, 4 μM 2OG
  slope of initial reaction rate: 0.004637 and 0.004674 and 0.005127
[1]; HIF-1a788-822, 8 μM 2OG
  slope of initial reaction rate: 0.004319 and 0.005019 and 0.005929
[1]; HIF-1a788-822, 16 μM 2OG
  slope of initial reaction rate: 0.00539 and 0.005468 and 0.006359
[1]; HIF-1a788-822, 32 μM 2OG
  slope of initial reaction rate: 0.006447 and 0.005635
[1]; HIF-1α788–822 substrate
  FIH Kmapp: 0.84 µM
[2]; CA1–20 substrate
  FIH activity, %-substrate conversion: > 95%
[2]; HIF-1α788–822 substrate
  FIH activity, %-substrate conversion: ~50%

## CCC(CC(=O)C(=O)O)C(=O)O (stereo not drawn) [compound 14, 4-ethyl-2OG]
[1]; 0.5 uM compound 14, time 2.797 min
  SPE-MS determined concentration of hydroxylated HIF-1a peptide: 0.04266 µM and 0.0716 µM and 0.08092 µM
[1]; 1 uM compound 14, time 2.797 min
  SPE-MS determined concentration of hydroxylated HIF-1a peptide: 0.09973 µM and 0.05746 µM and 0.08941 µM
[1]; 1 uM compound 14, time 3.49667 min
  SPE-MS determined concentration of hydroxylated HIF-1a peptide: 0.115 µM and 0.07268 µM and 0.1031 µM
[1]; 1 uM compound 14, time 4.19733 min
  SPE-MS determined concentration of hydroxylated HIF-1a peptide: 0.119 µM
[1]; 2 uM compound 14, time 2.098 min
  SPE-MS determined concentration of hydroxylated HIF-1a peptide: 0.07647 µM and 0.1051 µM and 0.08874 µM
[1]; 2 uM compound 14, time 2.797 min
  SPE-MS determined concentration of hydroxylated HIF-1a peptide: 0.08846 µM and 0.1193 µM and 0.1194 µM
[1]; 2 uM compound 14, time 3.49667 min
  SPE-MS determined concentration of hydroxylated HIF-1a peptide: 0.1173 µM and 0.1355 µM and 0.125 µM
[1]; 2 uM compound 14, time 4.19733 min
  SPE-MS determined concentration of hydroxylated HIF-1a peptide: 0.1246 µM and 0.1503 µM and 0.1494 µM
[1]; 4 uM compound 14, time 0.699833 min
  SPE-MS determined concentration of hydroxylated HIF-1a peptide: 0.04117 µM and 0.06069 µM and 0.06774 µM
[1]; 4 uM compound 14, time 2.098 min
  SPE-MS determined concentration of hydroxylated HIF-1a peptide: 0.09804 µM and 0.1128 µM and 0.1303 µM
[1]; 4 uM compound 14, time 2.797 min
  SPE-MS determined concentration of hydroxylated HIF-1a peptide: 0.119 µM and 0.1335 µM and 0.1587 µM
[1]; 4 uM compound 14, time 3.49667 min
  SPE-MS determined concentration of hydroxylated HIF-1a peptide: 0.1494 µM and 0.1576 µM and 0.1863 µM
[1]; 4 uM compound 14, time 4.19733 min
  SPE-MS determined concentration of hydroxylated HIF-1a peptide: 0.1634 µM and 0.187 µM and 0.2105 µM
[1]; 8 uM compound 14, time 0.699833 min
  SPE-MS determined concentration of hydroxylated HIF-1a peptide: 0.05237 µM and 0.05984 µM and 0.05853 µM
[1]; 8 uM compound 14, time 2.098 min
  SPE-MS determined concentration of hydroxylated HIF-1a peptide: 0.1084 µM and 0.1284 µM and 0.1223 µM
[1]; 8 uM compound 14, time 2.797 min
  SPE-MS determined concentration of hydroxylated HIF-1a peptide: 0.1357 µM and 0.1566 µM and 0.1624 µM
[1]; 8 uM compound 14, time 3.49667 min
  SPE-MS determined concentration of hydroxylated HIF-1a peptide: 0.1592 µM and 0.1706 µM and 0.1851 µM
[1]; 8 uM compound 14, time 4.19733 min
  SPE-MS determined concentration of hydroxylated HIF-1a peptide: 0.1873 µM and 0.2041 µM and 0.2053 µM
[1]; 16 uM compound 14, time 0.699833 min
  SPE-MS determined concentration of hydroxylated HIF-1a peptide: 0.04301 µM and 0.07322 µM and 0.06274 µM
[1]; 16 uM compound 14, time 2.098 min
  SPE-MS determined concentration of hydroxylated HIF-1a peptide: 0.1098 µM and 0.1258 µM and 0.1325 µM
[1]; 16 uM compound 14, time 2.797 min
  SPE-MS determined concentration of hydroxylated HIF-1a peptide: 0.1413 µM and 0.1532 µM and 0.1654 µM
[1]; 16 uM compound 14, time 3.49667 min
  SPE-MS determined concentration of hydroxylated HIF-1a peptide: 0.1747 µM and 0.1882 µM and 0.2002 µM
[1]; 16 uM compound 14, time 4.19733 min
  SPE-MS determined concentration of hydroxylated HIF-1a peptide: 0.1989 µM and 0.216 µM and 0.231 µM
[1]; 32 uM compound 14, time 0.699833 min
  SPE-MS determined concentration of hydroxylated HIF-1a peptide: 0.0551 µM and 0.06691 µM and 0.07521 µM
[1]; 32 uM compound 14, time 2.098 min
  SPE-MS determined concentration of hydroxylated HIF-1a peptide: 0.1143 µM and 0.1231 µM and 0.1358 µM
[1]; 32 uM compound 14, time 2.797 min
  SPE-MS determined concentration of hydroxylated HIF-1a peptide: 0.1568 µM and 0.1531 µM and 0.1667 µM
[1]; 32 uM compound 14, time 3.49667 min
  SPE-MS determined concentration of hydroxylated HIF-1a peptide: 0.1879 µM and 0.1751 µM and 0.1995 µM
[1]; 32 uM compound 14, time 4.19733 min
  SPE-MS determined concentration of hydroxylated HIF-1a peptide: 0.214 µM and 0.2049 µM and 0.2308 µM
[1]; CA1-20, 1 μM 14
  slope of initial reaction rate: 0.002761 and 0.002095 and 0.002277
[1]; CA1-20, 2 μM 14
  slope of initial reaction rate: 0.00488 and 0.004776 and 0.004739
[1]; CA1-20, 4 μM 14
  slope of initial reaction rate: 0.007334 and 0.006606 and 0.007233
[1]; CA1-20, 8 μM 14
  slope of initial reaction rate: 0.009175 and 0.0109 and 0.00922
[1]; CA1-20, 16 μM 14
  slope of initial reaction rate: 0.01109 and 0.0126 and 0.01075
[1]; CA1-20, 32 μM 14
  slope of initial reaction rate: 0.01017 and 0.00931 and 0.01176
[1]; HIF-1a788-822, 0.5 μM 14
  slope of initial reaction rate: 0.000241 and 0.000243 and 0.000366
[1]; HIF-1a788-822, 1 μM 14
  slope of initial reaction rate: 0.000319 and 0.00043 and 0.000499
[1]; HIF-1a788-822, 2 μM 14
  slope of initial reaction rate: 0.000549 and 0.000605 and 0.000685
[1]; HIF-1a788-822, 4 μM 14
  slope of initial reaction rate: 0.000653 and 0.000643 and 0.000856
[1]; HIF-1a788-822, 8 μM 14
  slope of initial reaction rate: 0.000767 and 0.000839 and 0.000864
[1]; HIF-1a788-822, 16 μM 14
  slope of initial reaction rate: 0.00082 and 0.000767 and 0.000893
[1]; HIF-1a788-822, 32 μM 14
  slope of initial reaction rate: 0.000874 and 0.000847 and 0.00081
[2]; CA1–20 substrate
  FIH activity, %-substrate conversion: ~75%
[2]; HIF-1α788–822 substrate
  FIH activity, %-substrate conversion: ~10%

## O=C(O)C(=O)CC(CCCc1ccccc1)C(=O)O (stereo not drawn) [compound 18, 4-(3-phenylpropyl)-2OG]
[2]; CA1–20 substrate
  FIH activity, %-substrate conversion: ^c<1% ^d<1%
[2]; HIF-1α788–822 substrate
  FIH activity, %-substrate conversion: ^c<1% ^d<1%
